From ChEMBL document CHEMBL5380848, “Novel Benzo Five-Membered Heterocycle Derivatives as P-Glycoprotein Inhibitors: Design, Synthesis, Molecular Docking, and Anti-Multidrug Resistance Activity” (J Med Chem, 2023)

How the values were obtained:
[1] = target: ATP-dependent translocase ABCB1 (Homo sapiens, UniProt P08183); test: Inhibition of P-gp-mediated multidrug resistance in doxorubicin-resistant human MCF7/ADR cells assessed as fold reversal of resistance by measuring doxorubicin IC50 incubated for 48 hrs by CCK-8 assay relative to doxorubicin IC50 in absence of compound; assay type: cell-based; conditions: nci-adr-res
[2] = test system: NCI/ADR-RES; test: Cytotoxicity against doxorubicin-resistant human MCF-7/ADR cells assessed as inhibition rate at 5 uM measured after […] hrs by CCK-8 assay relative to control; assay type: functional
[3] = test system: MCF7; test: Cytotoxicity against human MCF7 cells assessed as inhibition rate at 5 uM measured after […] hrs by CCK-8 assay relative to control; assay type: functional

Sequence of ATP-dependent translocase ABCB1 (P08183 whole entry): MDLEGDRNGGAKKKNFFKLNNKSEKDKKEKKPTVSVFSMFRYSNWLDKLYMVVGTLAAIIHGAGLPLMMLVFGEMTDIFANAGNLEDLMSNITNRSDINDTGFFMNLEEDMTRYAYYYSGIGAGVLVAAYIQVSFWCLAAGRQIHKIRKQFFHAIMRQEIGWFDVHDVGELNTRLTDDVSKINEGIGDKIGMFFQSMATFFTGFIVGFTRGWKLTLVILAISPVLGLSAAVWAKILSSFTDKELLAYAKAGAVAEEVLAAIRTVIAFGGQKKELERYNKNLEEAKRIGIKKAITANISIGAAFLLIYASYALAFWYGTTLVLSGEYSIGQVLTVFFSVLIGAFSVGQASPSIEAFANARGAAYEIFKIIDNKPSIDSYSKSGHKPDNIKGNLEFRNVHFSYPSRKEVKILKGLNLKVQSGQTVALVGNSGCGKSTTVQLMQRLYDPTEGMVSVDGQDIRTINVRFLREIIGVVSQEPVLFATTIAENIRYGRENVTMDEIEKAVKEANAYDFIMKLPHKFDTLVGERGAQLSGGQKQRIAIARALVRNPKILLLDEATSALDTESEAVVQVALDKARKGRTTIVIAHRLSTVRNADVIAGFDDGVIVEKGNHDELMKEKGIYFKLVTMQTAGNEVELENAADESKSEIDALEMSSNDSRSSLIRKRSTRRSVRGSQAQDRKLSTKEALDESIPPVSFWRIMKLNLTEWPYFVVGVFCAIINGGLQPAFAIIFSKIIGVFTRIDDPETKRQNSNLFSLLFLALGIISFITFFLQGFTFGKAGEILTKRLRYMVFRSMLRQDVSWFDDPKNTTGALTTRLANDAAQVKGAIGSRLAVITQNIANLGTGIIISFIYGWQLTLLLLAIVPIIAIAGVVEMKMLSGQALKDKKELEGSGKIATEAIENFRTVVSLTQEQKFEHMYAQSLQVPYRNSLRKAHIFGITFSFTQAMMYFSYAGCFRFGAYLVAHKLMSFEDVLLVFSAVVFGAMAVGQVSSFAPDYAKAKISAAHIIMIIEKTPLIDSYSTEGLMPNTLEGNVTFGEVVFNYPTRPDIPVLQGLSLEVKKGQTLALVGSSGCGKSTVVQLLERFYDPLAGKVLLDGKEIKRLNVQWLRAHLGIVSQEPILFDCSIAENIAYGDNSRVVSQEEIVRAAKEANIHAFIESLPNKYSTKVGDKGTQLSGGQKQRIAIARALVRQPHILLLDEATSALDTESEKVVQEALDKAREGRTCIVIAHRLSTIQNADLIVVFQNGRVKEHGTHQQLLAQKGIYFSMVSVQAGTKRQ

| Compound | fold change (FC) [1] | inhibition at 5 µM [2] [%] | inhibition at 5 µM [3] [%] |
| --- | --- | --- | --- |
| C/C=C/C[C@@H](C)[C@@H](O)[C@H]1C(=O)N[C@@H](CC)C(=O)N(C)CC(=O)N(C)[C@@H](CC(C)C)C(=O)N[C@@H](C(C)C)C(=O)N(C)[C@@H](CC(C)C)C(=O)N[C@@H](C)C(=O)N[C@H](C)C(=O)N(C)[C@@H](CC(C)C)C(=O)N(C)[C@@H](CC(C)C)C(=O)N(C)[C@@H](C(C)C)C(=O)N1C [CYCLOSPORINE] |  | 24.5 |  |
| COc1cc2c(cc1OC)CN(C(=O)c1cc3cc(-c4ccc(NC(=O)c5ccc(Cl)cc5)cc4)ccc3n1Cc1cccc(F)c1)CC2 | 37.6 | -2.6 | 1.7 |
| COc1ccc(C(=O)Nc2ccc(-c3ccc4[nH]c(C(=O)N5CCc6cc(OC)c(OC)cc6C5)cc4c3)cc2)cc1 | 78 | 23.9 | 19.6 |
| COc1cccc(Cn2c(C(=O)N3CCc4cc(OC)c(OC)cc4C3)cc3cc(-c4ccc(NC(=O)c5ccc(Cl)cc5)cc4)ccc32)c1 | 26.5 | 5 | 5 |
| COc1ccc(Cn2c(C(=O)N3CCc4cc(OC)c(OC)cc4C3)cc3cc(-c4ccc(NC(=O)c5ccc(Cl)cc5)cc4)ccc32)cc1 | 105.6 | 18.1 | 3.2 |
| COc1cc2c(cc1OC)CN(C(=O)c1cc3cc(-c4ccc(NC(=O)c5ccc(C(F)(F)F)cc5)cc4)ccc3[nH]1)CC2 | 1717 | 22 | 11.8 |
| COc1cc2c(cc1OC)CN(C(=O)c1cc3cc(-c4ccc(NC(=O)c5ccc(C#N)cc5)cc4)ccc3[nH]1)CC2 | 39.1 | 19.5 | 10.7 |
| COc1cc2c(cc1OC)CN(C(=O)c1cc3cc(-c4ccc(NC(=O)c5ccc(Cl)cc5)cc4)ccc3n1Cc1ccc(C(F)(F)F)cc1)CC2 | 29 | 12.6 | 15.5 |
| COc1cc2c(cc1OC)CN(C(=O)c1cc3cc(-c4ccc(NC(=O)c5ccc(Cl)cc5)cc4)ccc3n1Cc1cccc(Cl)c1)CC2 | 27.5 | 0.1 | 1.3 |
| COc1cc2c(cc1OC)CN(C(=O)c1cc3cc(-c4ccc(NC(=O)c5cccc(Cl)c5)cc4)ccc3[nH]1)CC2 | 431.5 | 17.7 | 12 |
| CCOc1ccc(C(=O)Nc2ccc(-c3ccc4[nH]c(C(=O)N5CCc6cc(OC)c(OC)cc6C5)cc4c3)cc2)cc1 | 333 | 7.7 | 15.4 |
| COc1cc2c(cc1OC)CN(C(=O)c1cc3cc(-c4ccc(NC(=O)c5ccc(Cl)cc5)cc4)ccc3n1Cc1ccc([N+](=O)[O-])cc1)CC2 | 25.9 | 12.8 | 19.1 |
| COc1cc2c(cc1OC)CN(C(=O)c1cc3cc(-c4ccc(NC(=O)c5ccc(I)cc5)cc4)ccc3[nH]1)CC2 | 83 | 12.9 | 15.4 |
| COc1cc2c(cc1OC)CN(C(=O)c1cc3cc(-c4ccc(NC(=O)c5ccc(Cl)cc5)cc4)ccc3n1Cc1ccc(F)cc1)CC2 | 53.5 | 16.6 | 11.2 |
| COc1cc2c(cc1OC)CN(C(=O)c1cc3cc(-c4ccc(NC(=O)c5ccc(Cl)cc5)cc4)ccc3n1Cc1cc(C(F)(F)F)cc(C(F)(F)F)c1)CC2 | 40.9 | 1.9 | 3.8 |
| COc1cc2c(cc1OC)CN(C(=O)c1cc3cc(-c4ccc(NC(=O)c5ccc(Cl)cc5)cc4)ccc3n1Cc1ccccc1C(F)(F)F)CC2 | 10.4 | 8.6 | 19.3 |
| COc1cc2c(cc1OC)CN(C(=O)c1cc3cc(-c4ccc(NC(=O)c5ccc(Cl)cc5)cc4)ccc3n1Cc1ccccc1F)CC2 | 92.1 | 14.3 | 5.3 |
| COc1ccc(CCN(C)CCCC(C#N)(c2ccc(OC)c(OC)c2)C(C)C)cc1OC (centres undefined) |  | 12.2 | 6.9 |
| COc1cc2c(cc1OC)CN(CCc1ccc(NC(=O)c3cc(OC)c(OC)cc3NC(=O)c3cnc4ccccc4c3)cc1)CC2 | 283.2 | 48.9 | 42.8 |
| COc1cccc2c1C(=O)c1c(O)c3c(c(O)c1C2=O)C[C@@](O)(C(=O)CO)C[C@@H]3O[C@H]1C[C@H](N)[C@H](O)[C@H](C)O1 [DOXORUBICIN] | 1 |  |  |
| COc1cc2c(cc1OC)CN(C(=O)c1cc3cc(-c4ccc(NC(=O)c5ccc(Cl)cc5)cc4)ccc3n1Cc1ccc(Cl)cc1)CC2 | 25.9 | -3.3 | 2.6 |
| COc1cc2c(cc1OC)CN(C(=O)c1cc3cc(-c4ccc(NC(=O)c5ccc(Cl)cc5)cc4)ccc3n1Cc1cccc(C(F)(F)F)c1)CC2 | 39.9 | 6.3 | 8.5 |
| COc1cc2c(cc1OC)CN(C(=O)c1cc3cc(-c4ccc(NC(=O)c5ccc(Cl)cc5)cc4)ccc3n1Cc1ccccc1Cl)CC2 | 30.3 | 18.6 | 13.4 |
| COc1cc2c(cc1OC)CN(C(=O)c1cc3cc(-c4ccc(NC(=O)c5ccc(Br)cc5)cc4)ccc3[nH]1)CC2 | 201.7 | 19.1 | 10.2 |
| COc1cc2c(cc1OC)CN(C(=O)c1cc3cc(-c4ccc(NC(=O)c5ccc(Cl)cc5)cc4)ccc3n1Cc1ccc(C)cc1)CC2 | 36.6 | 2.5 | 3.7 |
| COc1cc2c(cc1OC)CN(C(=O)c1cc3cc(-c4ccc(Oc5ccccc5)cc4)ccc3[nH]1)CC2 | 30 |  |  |
| COc1cc2c(cc1OC)CN(C(=O)c1cc3cc(-c4ccc(NC(=O)c5ccc(OC(F)(F)F)cc5)cc4)ccc3[nH]1)CC2 |  | 53.8 | 46.7 |

Further lines, with some results ahead:

| fold change (FC) [1] | Compound | inhibition at 5 µM [2] [%] | inhibition at 5 µM [3] [%] |
| --- | --- | --- | --- |
| 55.8 | COc1cc2c(cc1OC)CN(C(=O)c1cc3cc(-c4ccc([N+](=O)[O-])cc4)ccc3[nH]1)CC2 |  |  |
| 86.4 | COc1cc(OC)cc(-c2ccc3[nH]c(C(=O)N4CCc5cc(OC)c(OC)cc5C4)cc3c2)c1 |  |  |
| 137.6 | COc1cc2c(cc1OC)CN(C(=O)c1cc3cc(-c4cc(OC)c(OC)c(OC)c4)ccc3[nH]1)CC2 |  |  |
| 15.1 | COc1cc2c(cc1OC)CN(C(=O)c1cc3cc(-c4ccccc4OC)ccc3[nH]1)CC2 |  |  |
| 41.4 | COc1cc2c(cc1OC)CN(C(=O)c1cc3cc(-c4ccc(C)cc4)ccc3[nH]1)CC2 |  |  |
| 16.1 | COc1cc2c(cc1OC)CN(C(=O)c1cc3cc(-c4ccc(NC(=O)c5ccccc5OC)cc4)ccc3[nH]1)CC2 | -2.9 | 20.7 |
| 33.6 | CCOc1ccc(-c2ccc3[nH]c(C(=O)N4CCc5cc(OC)c(OC)cc5C4)cc3c2)cc1 |  |  |
| 24 | COc1cc2c(cc1OC)CN(C(=O)c1cc3cc(-c4ccc(OC(C)C)cc4)ccc3[nH]1)CC2 |  |  |
| 19.9 | COc1cc2c(cc1OC)CN(C(=O)c1cc3cc(-c4cccc(F)c4)ccc3[nH]1)CC2 |  |  |
| 204.4 | COc1cccc(-c2ccc3[nH]c(C(=O)N4CCc5cc(OC)c(OC)cc5C4)cc3c2)c1 |  |  |
| 33.4 | COc1cc2c(cc1OC)CN(C(=O)c1cc3cc(-c4ccc5c(c4)OCO5)ccc3[nH]1)CC2 |  |  |
| 34.9 | COc1cc2c(cc1OC)CN(C(=O)c1cc3cc(-c4ccc(N)cc4)ccc3[nH]1)CC2 |  |  |
| 27.5 | COc1cc2c(cc1OC)CN(C(=O)c1cc3cc(-c4ccc(OC(C)(C)C)cc4)ccc3[nH]1)CC2 |  |  |
| 16.5 | CCCOc1ccc(-c2ccc3[nH]c(C(=O)N4CCc5cc(OC)c(OC)cc5C4)cc3c2)cc1 |  |  |
| 486.9 | COc1ccc(C(=O)Nc2ccc(-c3ccc4[nH]c(C(=O)N5CCc6cc(OC)c(OC)cc6C5)cc4c3)cc2)cc1OC | 37.2 | 20.6 |
| 51.3 | COc1cc2c(cc1OC)CN(C(=O)c1cc3cc(-c4ccc(F)cc4)ccc3[nH]1)CC2 |  |  |

| fold change (FC) [1] | Compound | inhibition at 5 µM [2] [%] | inhibition at 5 µM [3] [%] |
| --- | --- | --- | --- |
| 33.4 | COc1cc2c(cc1OC)CN(C(=O)c1cc3cc(-c4cccc(Cl)c4)ccc3[nH]1)CC2 |  |  |
| 88.3 | COc1cc2c(cc1OC)CN(C(=O)c1cc3cc(-c4cccc(OC)c4OC)ccc3[nH]1)CC2 |  |  |
| 108.7 | COc1ccc(OC)c(-c2ccc3[nH]c(C(=O)N4CCc5cc(OC)c(OC)cc5C4)cc3c2)c1 |  |  |
| 52.8 | COc1cc2c(cc1OC)CN(C(=O)c1cc3cc(-c4ccccc4Cl)ccc3[nH]1)CC2 |  |  |
| 100.4 | COc1cc2c(cc1OC)CN(C(=O)c1cc3cc(-c4ccc(Cl)cc4)ccc3[nH]1)CC2 |  |  |
| 56.2 | COc1ccc(-c2ccc3[nH]c(C(=O)N4CCc5cc(OC)c(OC)cc5C4)cc3c2)cc1OC |  |  |
| 10 | COc1cc2c(cc1OC)CN(C(=O)c1cc3cc(-c4ccccc4)ccc3[nH]1)CC2 |  |  |
| 26.3 | COc1cc2c(cc1OC)CN(C(=O)c1cc3cc(-c4ccccc4C)ccc3[nH]1)CC2 |  |  |
| 99.1 | COc1cc2c(cc1OC)CN(C(=O)c1cc3cc(-c4ccc(OC(F)(F)F)cc4)ccc3[nH]1)CC2 |  |  |
| 112.7 | COc1ccc(-c2ccc3[nH]c(C(=O)N4CCc5cc(OC)c(OC)cc5C4)cc3c2)c(OC)c1 |  |  |
| 18.3 | CCCCOc1ccc(-c2ccc3[nH]c(C(=O)N4CCc5cc(OC)c(OC)cc5C4)cc3c2)cc1 |  |  |
| 41.9 | COc1cc2c(cc1OC)CN(C(=O)c1cc3cc(-c4ccccc4[N+](=O)[O-])ccc3[nH]1)CC2 |  |  |
| 17 | COc1cc2c(cc1OC)CN(C(=O)c1cc3cc(-c4ccccc4F)ccc3[nH]1)CC2 |  |  |
| 58.1 | COc1cc2c(cc1OC)CN(C(=O)c1cc3cc(-c4cccc(C)c4)ccc3[nH]1)CC2 |  |  |
| 76.3 | COc1cc2c(cc1OC)CN(C(=O)c1cc3cc(-c4cccc([N+](=O)[O-])c4)ccc3[nH]1)CC2 |  |  |
| 46.4 | COc1ccc(-c2ccc3[nH]c(C(=O)N4CCc5cc(OC)c(OC)cc5C4)cc3c2)cc1 |  |  |
